The results in this text go back to PubChem BioAssay (NCI).

Some test systems named below: SF-295 CNS; DMS 273 small cell lung; UACC-257 melanoma; HCT-15 colon; IGROV1 ovarian; OVCAR-5 ovarian; HT29 colon; A498 renal; NCI-H226 lung; HOP-18 NSCLC.
What all share (test): NCI anticancer screen, dose series, 48 h

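These data come from cells grown in 96-well plates and exposed to compound for 48 hours at five concentrations. GI50 marks 50% less growth. Definition used: TGI = concentration required for complete inhibition of growth.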

As to `O=S(=O)(c1cccc(N=C=S)c1)c1cccc(N=C=S)c1`, the TGI in the assay on SF-295 CNS was 39.4 µM; in the assay on DMS 273 small cell lung, 40.6 µM; with UACC-257 melanoma it was 38.5 µM; with HCT-15 colon it was 33.8 µM; in the assay on IGROV1 ovarian, 34.7 µM; with OVCAR-5 ovarian, above 100 µM.
Take `O=S(=O)(/C=C/C(=C/c1ccccc1)S(=O)(=O)c1ccccc1)c1ccccc1`: the TGI with HT29 colon is 3.28 µM; with SF-295 CNS, 3.05 µM; with DMS 273 small cell lung it was 2.9 µM; in the assay on UACC-257 melanoma it was 2.89 µM; with HCT-15 colon, 3.3 µM; with IGROV1 ovarian it was 25 µM.
Take `N#Cc1ccc(C=NC23CC4CC(CC(C4)C2)C3)cc1`: the TGI in the assay with HT29 colon, in the assay with SF-295 CNS, with A498 renal, in the assay on DMS 273 small cell lung, with UACC-257 melanoma and with HCT-15 colon was above 100 µM each time. Besides, the TGI in the assay with IGROV1 ovarian, in the assay on NCI-H226 lung and with OVCAR-5 ovarian was above 100 µM throughout.
Turning to `Cc1ccc(NC(=O)CC2C(=O)Nc3ccccc3S2(=O)=O)c(C)c1` (stereo unspecified), the TGI in the assay on HT29 colon was 27.2 µM; with SF-295 CNS, 50.2 µM; in the assay on A498 renal, 31.2 µM; with DMS 273 small cell lung it was 25.8 µM; in the assay with UACC-257 melanoma, 55 µM; in the assay on HCT-15 colon, 30.3 µM. Besides, the TGI in the assay with IGROV1 ovarian is 28.8 µM; in the assay with NCI-H226 lung, 35.9 µM; in the assay on OVCAR-5 ovarian it was 46.9 µM.
As to `C=CNC(=O)NC(=O)CSc1nnc(-c2ccccc2NC(=O)C(F)(F)F)c(=O)[nH]1`, the TGI in the assay on HT29 colon, in the assay on SF-295 CNS, in the assay on DMS 273 small cell lung, in the assay with HCT-15 colon, with IGROV1 ovarian and in the assay on NCI-H226 lung was above 100 µM each time. This compound returned a TGI in the assay with OVCAR-5 ovarian above 100 µM.
As to `O=C(CC1SC(=Nc2ccccc2Cl)NC1=O)Nc1ccc(Cl)cc1Cl` (stereo unspecified), the TGI in the assay on HT29 colon, in the assay with SF-295 CNS, with UACC-257 melanoma, in the assay on HOP-18 NSCLC, with IGROV1 ovarian and with NCI-H226 lung was above 100 µM throughout. In addition, the TGI in the assay with OVCAR-5 ovarian was above 100 µM.
Take `O=C(c1nc2ccccc2[nH]c1=O)C(O)c1ccccc1` (stereo unspecified): the TGI in the assay on HT29 colon is above 100 µM; with SF-295 CNS it was above 100 µM; in the assay on A498 renal, 99.6 µM; with DMS 273 small cell lung, above 100 µM; with UACC-257 melanoma, above 100 µM; in the assay with HCT-15 colon, above 100 µM. The TGI in the assay on IGROV1 ovarian, in the assay with NCI-H226 lung and in the assay with OVCAR-5 ovarian was above 100 µM each time.
As to `COC1C(O)C(CO)OC(OC2C(O)COC(OC3C(C)OC(OC4C(O[C@H]5CC[C@@]6(C)C(CC=C7[C@H]6CCC68C(=O)O[C@@](C)(CCCC(C)C)[C@H]6[C@@H](OC(C)=O)C[C@@]78C)C5(C)C)OCC(OS(=O)(=O)O)C4O)C(OC4OCC(O)C(O)C4O)C3O)C2O)C1O` (stereo partly specified), the GI50 in the assay on HT29 colon is 0.0795 µM; with SF-295 CNS, 0.158 µM; in the assay on A498 renal, 0.324 µM; with UACC-257 melanoma, 1.51 µM; in the assay on HCT-15 colon, 0.177 µM; in the assay on IGROV1 ovarian, 0.178 µM. The GI50 is 0.192 µM with NCI-H226 lung and 0.241 µM with OVCAR-5 ovarian. The TGI stood at 0.221 µM in the assay with HT29 colon; 0.389 µM with SF-295 CNS; 0.821 µM in the assay on A498 renal; 3.54 µM in the assay with UACC-257 melanoma; 0.454 µM in the assay with HCT-15 colon; 0.499 µM in the assay on IGROV1 ovarian. The TGI is 0.484 µM with NCI-H226 lung and 0.564 µM in the assay with OVCAR-5 ovarian.
With `CC1(c2ccccc2Cl)C(C#N)C(=O)NC(=O)C1C#N` (stereo unspecified), the TGI in the assay on HT29 colon, with SF-295 CNS, with A498 renal, in the assay on DMS 273 small cell lung, in the assay on UACC-257 melanoma and in the assay on HCT-15 colon was above 100 µM throughout. The TGI with IGROV1 ovarian is above 100 µM; with NCI-H226 lung it was 98 µM; in the assay on OVCAR-5 ovarian it was above 100 µM.
Regarding `O=C(O)CCC(=O)c1ccc2sc3ccccc3c2c1`, the TGI in the assay with HT29 colon, with SF-295 CNS, in the assay with A498 renal, in the assay with UACC-257 melanoma, in the assay on HCT-15 colon and in the assay with IGROV1 ovarian was above 100 µM each time. The TGI in the assay on NCI-H226 lung and in the assay with OVCAR-5 ovarian was above 100 µM each time.
As for `Cn1cc(C2=C(c3cccc(OC[C@@H](O)CO)c3)C(=O)NC2=O)c2ccccc21`, the GI50 in the assay on HT29 colon is above 25 µM; with SF-295 CNS it was 3.59 µM; in the assay on A498 renal, 0.656 µM; in the assay on UACC-257 melanoma, above 25 µM; with HCT-15 colon it was above 25 µM; in the assay with IGROV1 ovarian, above 25 µM. In addition, the GI50 with NCI-H226 lung was 16.9 µM; with OVCAR-5 ovarian, above 25 µM. Also, the TGI is above 25 µM with HT29 colon; above 25 µM in the assay with SF-295 CNS; above 5.77 µM in the assay on A498 renal; above 25 µM with UACC-257 melanoma; above 25 µM in the assay on HCT-15 colon; above 25 µM in the assay with IGROV1 ovarian. For the same compound, the TGI in the assay with NCI-H226 lung and with OVCAR-5 ovarian was above 25 µM throughout.
As for `C#CCNC(=O)[C@H](CC)[C@H]1CC[C@H](C)[C@H]([C@@H](C)[C@H](O)[C@H](C)C(=O)[C@H](CC)C2O[C@]3(C=CC(=O)[C@]4(CC[C@@](C)([C@H]5CC[C@](O)(CC)[C@H](C)O5)O4)O3)[C@H](C)C[C@@H]2C)O1` (stereo partly specified), the GI50 in the assay with HT29 colon was 2.26 µM; in the assay on SF-295 CNS, 1.57 µM; in the assay with A498 renal it was 2.19 µM; with UACC-257 melanoma, 1.94 µM; with HCT-15 colon, 2.61 µM; in the assay with IGROV1 ovarian it was 2.03 µM. In addition, the GI50 with NCI-H226 lung is 2.94 µM; in the assay on OVCAR-5 ovarian, 2.62 µM. The TGI with HT29 colon came out at 5.46 µM; in the assay with SF-295 CNS, 3.56 µM; in the assay on A498 renal it was 6.07 µM; in the assay with UACC-257 melanoma it was 4.88 µM; with HCT-15 colon, 7.81 µM; in the assay on IGROV1 ovarian, 7.92 µM. For the same compound, the figures for the TGI in the assay on NCI-H226 lung and in the assay with OVCAR-5 ovarian were 22.6 µM and 8.16 µM, respectively.
`O=C(O)c1cccc(C(=O)O)c1S(=O)Cc1ccccc1` (stereo unspecified): the TGI with HT29 colon, with SF-295 CNS, in the assay with A498 renal, with UACC-257 melanoma, in the assay on HCT-15 colon and in the assay on IGROV1 ovarian was above 100 µM throughout. Further, the TGI with NCI-H226 lung and in the assay on OVCAR-5 ovarian was above 100 µM each time.
For `COc1ccc(/C=C(\C#N)n2nnc3c(F)cccc32)cc1`, the GI50 with HT29 colon is 0.286 µM; with SF-295 CNS, 0.275 µM; with A498 renal it was 0.22 µM; in the assay with UACC-257 melanoma, 1.16 µM; in the assay with HCT-15 colon, 0.133 µM; in the assay on IGROV1 ovarian, 0.388 µM. For the same compound, the GI50 in the assay with NCI-H226 lung is 1.98 µM; in the assay on OVCAR-5 ovarian, 0.84 µM. Further, the TGI was 2.72 µM in the assay with SF-295 CNS; 1.04 µM in the assay on A498 renal; above 100 µM in the assay with UACC-257 melanoma; above 100 µM with HCT-15 colon; above 36.9 µM with IGROV1 ovarian; above 100 µM in the assay on NCI-H226 lung. The compound further yielded a TGI in the assay with OVCAR-5 ovarian of 14 µM.
